From the NIST ThermoML archive (doi:10.1016/j.jct.2009.07.022)
Several values for one entry are separate records, joined by “and”; a condition that tells them apart may be missing. Equal values may be shown once.

Legend:
[1] = Crystal, Calculated from knudsen effusion weight loss
[2] = molar enthalpy of transition or fusion; details: 298.15 K; Crystal; Clausius-Clapeyron Eq with Heat Capacity

c1ccc(-c2cccc(-c3ccccc3)c2-c2ccccc2)cc1 [1,2,3-triphenylbenzene]
[1]
Details | vapor or sublimation pressure
373.15 K | 0.0001 kPa and 9.85e-05 kPa
375.03 K | 0.000124 kPa and 0.00012 kPa
377.27 K | 0.00016 kPa and 0.000158 kPa
379.15 K | 0.0002 kPa and 0.000199 kPa and 0.000195 kPa
381.02 K | 0.000244 kPa and 0.000247 kPa and 0.000237 kPa
383.27 K | 0.000316 kPa and 0.000305 kPa and 0.000301 kPa
385.27 K | 0.000384 kPa and 0.000369 kPa and 0.000365 kPa
387.12 K | 0.000458 kPa and 0.00046 kPa
389.05 K | 0.000548 kPa and 0.000555 kPa and 0.000543 kPa
391.28 K | 0.000733 kPa and 0.00073 kPa and 0.000715 kPa
393.1 K | 0.000871 kPa and 0.000865 kPa and 0.000872 kPa
394.98 K | 0.001033 kPa and 0.001062 kPa and 0.001027 kPa

Details | molar enthalpy of transition or fusion [kcal/mol]
[2] | 32.1
